From BindingDB's records for doi:10.1021/jm00171a016 (University of Oregon, 1990) come the findings set out here.

This experiment can be described thus: In vitro inhibitory activity against [3H]DTG binding to Sigma opioid receptor in guinea pig brain membrane homogenates.
In turn, `NC(=NC1CC2CCC1C2)Nc1ccccc1I` (stereo not given) gave an IC50 of 4 nM. This lies in the single-digit nanomolar range.

As to `Cc1ccccc1NC(N)=NC1CC2CCC1C2` (stereo not given), the 50% inhibitory concentration (IC50) came out at 6 nM.

Compound `Cc1cc([N+](=O)[O-])ccc1/N=C(/N)Nc1ccc([N+](=O)[O-])cc1C` gave an IC50 of 760 nM.

`N=C(NCc1ccccc1)NCc1ccccc1` displayed an IC50 of 90 nM.

For `Cc1cc([N+](=O)[O-])ccc1N=C(N)Nc1ccccc1C`, the 50% inhibitory concentration (IC50) came to 37 nM. This IC50 lies about 2.4-fold lower than the previous one.

`NC(=Nc1ccc(Br)cc1)Nc1ccc(Br)cc1`: the IC50 was 540 nM.

In the case of `Cc1ccccc1N=C(N)Nc1cccc(O)c1`, the IC50 amounted to 207 nM.

Take `Cc1ccccc1N=C(N)NC1CCCCC1`: the IC50 is 12 nM.

For `Cc1cc([N+](=O)[O-])ccc1NC(N)=Nc1cccc(O)c1`, the IC50 came to 118 nM.

As for `NC(=Nc1ccccc1I)NC12CC3CC(CC(C3)C1)C2`, the half-maximal inhibitory concentration (IC50) amounted to 6 nM.

The IC50 is the point on the concentration scale where inhibition reaches its midpoint.
